By IC50 is commonly meant the midpoint of a concentration-inhibition curve. The low end stands for greater potency, the high end for weaker potency.

The values below come from patent US20250367173A1, “ECTONUCLEOTIDE PYROPHOSPHATASE-PHOSPHODIESTERASE-1 INHIBITORS AND PHARMACEUTICAL COMPOSITIONS COMPRISING THE SAME” (LigaChem Biosciences Inc., priority 2022, published 2025).

Experiment [1] deals with T1, ENPP-1 (Homo sapiens, UniProt P22413).
T1 construct: purchased Biovendor RD172124100
T1 sequence (P22413 1-925): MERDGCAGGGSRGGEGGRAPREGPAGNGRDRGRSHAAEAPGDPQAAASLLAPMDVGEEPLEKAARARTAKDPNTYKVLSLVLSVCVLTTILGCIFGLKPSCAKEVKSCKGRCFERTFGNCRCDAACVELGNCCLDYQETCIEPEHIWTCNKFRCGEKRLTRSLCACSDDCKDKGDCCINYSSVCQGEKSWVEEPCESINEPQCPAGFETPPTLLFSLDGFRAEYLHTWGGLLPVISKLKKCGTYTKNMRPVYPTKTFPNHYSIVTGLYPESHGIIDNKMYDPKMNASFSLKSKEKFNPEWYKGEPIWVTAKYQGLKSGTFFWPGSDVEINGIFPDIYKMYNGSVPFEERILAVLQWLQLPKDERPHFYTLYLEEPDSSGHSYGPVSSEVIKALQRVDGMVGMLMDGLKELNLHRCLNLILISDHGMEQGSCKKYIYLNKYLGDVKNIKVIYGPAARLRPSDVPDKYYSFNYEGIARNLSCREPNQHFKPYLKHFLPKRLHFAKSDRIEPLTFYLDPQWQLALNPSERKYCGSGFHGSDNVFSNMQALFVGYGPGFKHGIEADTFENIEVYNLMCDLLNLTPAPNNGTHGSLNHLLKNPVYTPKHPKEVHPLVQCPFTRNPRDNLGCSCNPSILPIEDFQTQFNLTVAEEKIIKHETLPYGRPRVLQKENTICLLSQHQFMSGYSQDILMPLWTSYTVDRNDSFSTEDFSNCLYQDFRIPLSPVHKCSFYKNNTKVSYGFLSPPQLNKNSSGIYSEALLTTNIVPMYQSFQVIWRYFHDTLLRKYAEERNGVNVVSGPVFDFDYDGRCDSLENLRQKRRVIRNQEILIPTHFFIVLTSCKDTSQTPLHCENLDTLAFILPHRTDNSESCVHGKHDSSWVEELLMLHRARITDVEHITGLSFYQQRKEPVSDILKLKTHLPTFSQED
As to the kind of experiment: ENPP-1 enzyme assay with cGAMP substrate. The format is biochemical. The note with it: 200 pM ENPP-1, 10 μM substrate 2′3′-cGAMP, pH 7.4, 37° C., 30 minutes, Transcreener AMP2/GMP2 kit; average IC50. On the procedure: 2′3′-cGAMP is a natural substrate specifically hydrolyzed by ENPP-1, and produces 5′-adenosine monophosphate (AMP) and 5′-guanosine monophosphate (GMP). AMP and GMP produced from the reaction are monitored for ENPP-1 enzyme activity through an AMP^2/GMP^2 ENPP-1 Assay kit (Bellbrook Labs, catalog number 3015).
First, the reaction mixture contains 25 mM Tris-HCl (pH 7.4), 5 mM MgCl2, 0.01% Brij-35, and 1% DMSO. Serially diluted ENPP-1 inhibitors (test compound concentrations ranging from 10 μM to 0.5 nM) are reacted with 200 pM ENPP-1 (Biovendor, catalog number RD172124100) and 10 μM substrate 2′3′-cGAMP at 37° C. for 30 minutes. All assays include a DMSO control without ENPP-1 inhibitor that provides maximal AMP and GMP production. After 30 minutes of this reaction, AMP and GMP production is detected as a measure of ENPP-1 enzymatic activity using the Transcreener® AMP^2/GMP^2 ENPP-1 Assay kit. The detection reagent is a reagent containing 16 nM AMP^2/GMP^2 Antibody-Tb, 25 mM Tris-HCl and 60.1 nM AMP/GMP HiLyte647 Tracer, which is added by 5 μl, mixed well, and incubated at 25° C. for 2 hours.
The […] signal is measured using a SPARK Cyto plate reader (Tecan). Inhibition (%) is calculated using the following formula: (Max 615:665 ratio-615:665 ratio)/Max 615:665 ratio×100%. % residual ENPP-1 enzyme activity versus IC50 values for ENPP-1 inhibitor concentrations were determined by fitting inhibition curves using the 4-parameter method of GraphPad Prism® software [GraphPad version 9.3.1 for Windows, GraphPad Software, La Jolla California USA, www.graphpad.com].

Experiment [2] addresses T1, ENPP-1. As to the kind of experiment: ENPP-1 enzyme assay with pNP-TMP substrate. The note with it: 12.5 ng ENPP-1, 720 μM substrate pNP-TMP, pH 9.0, 37° C., 60 minutes, absorbance 405 nm; average IC50. The format is biochemical. The procedure:
In order to measure the ENPP-1 inhibitory activity of the compounds according to the present disclosure, the following tests were performed.
ENPP-1 hydrolyzes a variety of substrates, including phosphodiester bonds of nucleotides and nucleotide sugars and pyrophosphate bonds of nucleotides and nucleotide sugars. p-Nitrophenyl 5′-thymidine monophosphate (p-Nph-5′-TMP) is an artificial substrate for 5′-adenosine monophosphate (AMP), which is hydrolyzed by the human recombinant ENPP-1 enzyme. In the above reaction, ENPP-1 enzymatic activity is monitored through the formation of yellow p-nitrophenolate, which absorbs at 405 nm.
First, the reaction mixture contains 100 mM Tris-HCl (pH 9.0), 150 mM NaCl, […], and 1% DMSO. Serially diluted ENPP-1 inhibitors (test compound concentrations ranging from 10 μM to 0.5 nM) are reacted with 12.5 ng of ENPP-1 (Biovendor, catalog number RD172124100) and 720 μM substrate pNP-TMP at 37° C. for 60 minutes. All assays include a DMSO control without ENPP-1 inhibitor that gives maximum absorbance.
After 60 minutes of this reaction, the […] is measured using an Epoch™ Microplate Spectrophotometer (BioTek Instruments Inc.). Inhibition (%) is calculated using the following formula: Sample OD405 nm/Max OD405 nm×100%. % residual ENPP-1 enzyme activity versus IC50 values for ENPP-1 inhibitor concentrations were determined by fitting inhibition curves using the 4-parameter method of GraphPad Prism® software [GraphPad version 9.3.1 for Windows, GraphPad Software, La Jolla California USA, www.graphpad.com].

`COc1ccc2c(c1)c1cccnc1n2Cc1ccc(S(N)(=O)=O)cc1` [Compound 49, 4-((6-methoxy-9H-pyrido[2,3-b]indol-9-yl)methyl)benzenesulfonamide]: the IC50 was 1000 to 10000 nM against ENPP-1 [1] and less than 1000 nM against ENPP-1 [2].
For the compound `COc1ccc2c(c1)c1c(n2Cc2ccc(S(N)(=O)=O)cc2)CCCN1` [Compound 38, 4-((8-methoxy-1,2,3,4-tetrahydro-5H-pyrido[3,2-b]indol-5-yl)methyl)benzenesulfonamide], the IC50 on ENPP-1 [1] and on ENPP-1 [2] was less than 1000 nM throughout.
`COc1cnc2c(c1)c1c(n2Cc2ccc(S(N)(=O)=O)cc2)CNCC1` [Compound 34, 4-((3-methoxy-5,6,7,8-tetrahydro-9H-pyrrolo[2,3-b:5,4-c′]dipyridin-9-yl)methyl)benzene sulfonamide]: the IC50 against ENPP-1 [1] and against ENPP-1 [2] was greater than 10000 nM in each case.
In the case of `COc1ccc2c(c1)c1ncccc1n2Cc1ccc(S(C)(=N)=O)cc1F` (centres unmarked) [Compound 17, (3-fluoro-4-((8-methoxy-5H-pyrido[3,2-b]indol-5-yl)methyl)phenyl)(imino)(methyl)-l6-sulfanone], the IC50 against ENPP-1 [1] and on ENPP-1 [2] was less than 1000 nM in each case.
On to `COc1ccc2c3c(=O)[nH]ccc3n(Cc3ccc(S(N)(=O)=O)cc3)c2c1` [Compound 43, 4-((7-methoxy-1-oxo-1,2-dihydro-5H-pyrido[4,3-b]indol-5-yl)methyl)benzenesulfonamide], for which the IC50 is 1000 to 10000 nM against ENPP-1 [1] and less than 1000 nM on ENPP-1 [2].
The like results for `COc1ccc2c(c1)c1c(n2Cc2ccc(S(N)(=O)=O)cc2)CCNC1=O` [Compound 41, 4-((8-methoxy-1-oxo-1,2,3,4-tetrahydro-5H-pyrido[4,3-b]indol-5-yl)methyl)benzene sulfonamide] were, in that order, 1000 to 10000 nM and less than 1000 nM.
Regarding `CCS(=N)(=O)c1ccc(Cn2c3ccc(OC)cc3c3ncccc32)cc1` (centres unmarked) [Compound 11, ethyl (imino) (4-((8-methoxy-5H-pyrido[3,2-b]indol-5-yl)methyl)phenyl)-l6-sulfanone], the IC50 against ENPP-1 [1] and against ENPP-1 [2] was less than 1000 nM in each case.
Consider `COc1ccc2c(c1)c1ncccc1n2Cc1ccc(S(C)(=N)=O)cc1C(F)(F)F` (centres unmarked) [Compound 55, imino (4-((8-methoxy-5H-pyrido[3,2-b]indol-5-yl)methyl)-3-(trifluoromethyl)phenyl)(methyl)-l6-sulfanone], for which the IC50 against ENPP-1 [2] was greater than 10000 nM.
With `COc1ccc2c(c1)c1ncccc1n2Cc1ccc(S(N)(=O)=O)cc1Cl` [Compound 16, 3-chloro-4-((8-methoxy-5H-pyrido[3,2-b]indol-5-yl)methyl)benzenesulfonamide], the IC50 against ENPP-1 [1] and against ENPP-1 [2] was less than 1000 nM throughout.
As for `COc1cc(Cl)c2c(c1)c1ncccc1n2Cc1ccc(S(N)(=O)=O)cc1` [Compound 27, 4-((6-chloro-8-methoxy-5H-pyrido[3,2-b]indol-5-yl)methyl)benzenesulfonamide], the IC50 is 1000 to 10000 nM on ENPP-1 [1] and less than 1000 nM on ENPP-1 [2].
Regarding `COc1cc2c3ncccc3n(Cc3ccc(S(C)(=N)=O)cc3)c2cc1F` (single isomer, unassigned) [Compound 30a, (4-((7-fluoro-8-methoxy-5H-pyrido[3,2-b]indol-5-yl)methyl)phenyl)(imino)(methyl)-l6-sulfanone], the IC50 on ENPP-1 [1] and on ENPP-1 [2] was less than 1000 nM throughout.
Regarding `CNS(=O)(=O)c1ccc(Cn2c3ccc(OC)cc3c3ncccc32)cc1` [Compound 7, 4-((8-methoxy-5H-pyrido[3,2-b]indol-5-yl)methyl)-N-methylbenzenesulfonamide], the IC50 against ENPP-1 [1] was greater than 10000 nM; against ENPP-1 [2], 1000 to 10000 nM.
`COc1cc2c3ncccc3n(Cc3ccc(S(=N)(=O)C4CC4)cc3)c2cc1F` (single isomer, unassigned) [Compound 56a, cyclopropyl (4-((7-fluoro-8-methoxy-5H-pyrido[3,2-b]indol-5-yl)methyl)phenyl) (imino)-l6-sulfanone]: the IC50 against ENPP-1 [2] was less than 1000 nM.
`COc1cc2c3ncccc3n(Cc3ccc(S(=N)(=O)C4CC4)cc3)c2cc1F` (single isomer, unassigned) [Compound 56b, cyclopropyl (4-((7-fluoro-8-methoxy-5H-pyrido[3,2-b]indol-5-yl)methyl)phenyl) (imino)-l6-sulfanone] yielded an IC50 against ENPP-1 [1] of less than 1000 nM.
The compound `COc1ccc2c(c1)c1c(n2Cc2ccc(S(N)(=O)=O)cc2)CNC(C)C1` (centres unmarked) [Compound 33, 4-((6-methoxy-3-methyl-1,2,3,4-tetrahydro-9H-pyrido[3,4-b]indol-9-yl)methyl)benzene sulfonamide] gave an IC50 against ENPP-1 [2] greater than 10000 nM.
The same measure, in the same setting: next, `COc1ccc2c(c1)c1cnncc1n2Cc1ccc(S(N)(=O)=O)cc1` [Compound 50, 4-((8-methoxy-5H-pyridazino[4,5-b]indol-5-yl)methyl)benzenesulfonamide]: 1000 to 10000 nM; `COc1cc2c3ncccc3n(Cc3ccc(S(C)(=N)=O)cc3)c2cc1F` (single isomer, unassigned) [Compound 30b, (4-((7-fluoro-8-methoxy-5H-pyrido[3,2-b]indol-5-yl)methyl)phenyl)(imino)(methyl)-l6-sulfanone]: less than 1000 nM.
Take `COc1ccc2c(c1F)c1ncccc1n2Cc1ccc(S(N)(=O)=O)cc1` [Compound 54, 4-((9-fluoro-8-methoxy-5H-pyrido[3,2-b]indol-5-yl)methyl)benzenesulfonamide]: at ENPP-1 [1], the IC50 was less than 1000 nM.
On ENPP-1 [2], `COc1ccc2c(c1)c1c(n2Cc2cccc(S(N)(=O)=O)c2)CCCN1` [Compound 39, 3-((8-methoxy-1,2,3,4-tetrahydro-5H-pyrido[3,2-b]indol-5-yl)methyl)benzenesulfonamide] returned a half-maximal inhibitory concentration (IC50) greater than 10000 nM.
The same measure, in the same setting: next, `Cc1ccc2c(c1)c1c(n2Cc2ccc(S(N)(=O)=O)cc2)CCCN1` [Compound 40, 4-((8-methyl-1,2,3,4-tetrahydro-5H-pyrido[3,2-b]indol-5-yl)methyl)benzenesulfonamide]: 1000 to 10000 nM.
On the same count and under the same terms, the figure for `COc1ccc2c(c1)c1ncccc1n2Cc1ccc(S(C)(=N)=O)cc1` (single isomer, unassigned) [Compound 10b, imino (4-((8-methoxy-5H-pyrido[3,2-b]indol-5-yl)methyl)phenyl)(methyl)-l6-sulfanone] is less than 1000 nM.
